Reference: patent US20130102463A1, “Herbicidal Compositions” (BASF SE, priority 2010, published 2013)
Several values for one entry are separate records, joined by “and”; a condition that tells them apart may be missing. Equal values may be shown once.

How the values were obtained:
[1] = system: fleabane (Erigeron canadiensis, ERICA); assay: Example 1: herbicidal action; whole plants sprayed with B, PPO inhibitor applied as local leaf treatment, high light; type: in vivo, Erigeron canadensis
[2] = system: fleabane (Erigeron canadiensis); assay: Example 3: herbicidal action; whole plants sprayed with B, component A applied as local leaf treatment, high light; type: in vivo, Erigeron canadensis; settings: ERICA
[3] = system: morningglory (Pharbitis purpurea, PHBPU); assay: Example 2: herbicidal action; whole plants sprayed with A and B in the spraying chamber, high light; type: in vivo
[4] = system: velvet leave (Abutilon theophrasti, ABUTH); assay: as above; type: in vivo
[5] = system: fleabane (Erigeron canadiensis, ERICA); assay: as above; type: in vivo, Erigeron canadensis
[6] = system: moringglory (Pharbitis purpurea, PHBPU); assay: Example 1: herbicidal action; whole plants sprayed with B, PPO inhibitor applied as local leaf treatment, high light; type: in vivo
[7] = 11 DAT, rate 500 g/ha (B alone)
[8] = walk-in chamber, 4 DAT, rate 20 g/ha (A alone)
[9] = walk-in chamber, 14 DAT, rate 20 g/ha (A alone)
[10] = 5 DAT, rate 1000 g/ha (B alone)
[11] = 11 DAT, rate 1000 g/ha (B alone)
[12] = walk-in chamber, 4 DAT, rate 0.125 g/ha (A alone)
[13] = walk-in chamber, 14 DAT, rate 0.125 g/ha (A alone)
[14] = growth chamber, 4 DAT, rate 0.250 g/ha (A alone)
[15] = growth chamber, 4 DAT, rate 0.500 g/ha (A alone)
[16] = growth chamber, 14 DAT, rate 0.250 g/ha (A alone)
[17] = growth chamber, 14 DAT, rate 0.500 g/ha (A alone)
[18] = 10 DAT, rate 1000 g/ha (B alone)
[19] = 42 DAT, rate 1000 g/ha (B alone)
[20] = 4 DAT, rate 2000 g/ha (B alone)
[21] = 10 DAT, rate 2000 g/ha (B alone)

CCCCC(CC)COC(=O)C(C#N)=C(c1ccccc1)c1ccccc1 (centres unmarked) [B.1.2.2, 2-cyano-3,3-diphenylacrylic acid-2′-ethylhexyl ester]
% damage ([1]; 7 DAT, rate 500 g/ha (B alone)): 10%
% damage [1, 7]: 10%

CCCCN1C(=O)c2cc3nn(-c4cc(C(C)(C)CC(C)(C)C)cc(C(C)(C)c5ccccc5)c4O)nc3cc2C1=O [B.1.1.2]
% damage ([2]; 2 DAT, rate 500 g/ha (B alone)): 0%
% damage ([2]; 8 DAT, rate 500 g/ha (B alone)): 0%

Cc1c(C)c2c(c(C)c1O)CC[C@@](C)(CCC[C@H](C)CCC[C@H](C)CCCC(C)C)O2 [B.3.4.1, α-tocopherol]
% damage ([1]; 5 DAT, rate 7000 g/ha (B alone)): 0%
% damage ([1]; 11 DAT, rate 7000 g/ha (B alone)): 0%

CCOc1cc(Oc2ccc(C(F)(F)F)cc2Cl)ccc1[N+](=O)[O-] [A.4.1, oxyfluorofen]
% damage ([3]; walk-in chamber, 4 DAT, rate 5 g/ha (A alone)): 94%
% damage [3, 8]: 99%
% damage ([3]; walk-in chamber, 14 DAT, rate 5 g/ha (A alone)): 83%
% damage [3, 9]: 95%
% damage [4, 8]: 93%
% damage [4, 9]: 80%

Oc1ccc(C=Cc2cc(O)cc(O)c2)cc1 [B.3.27.1, resveratrol]
% damage [1, 10]: 10%
% damage [1, 11]: 0%

CC1=CC(=O)CC(C)(C)[C@@]1(O)/C=C/C(C)=C\C(=O)O [B.3.28.1, abscisic acid]
% damage [1, 10]: 1%
% damage [1, 11]: 0%

CC(C)N(C)S(=O)(=O)NC(=O)c1cc(-n2c(=O)cc(C(F)(F)F)n(C)c2=O)c(F)cc1Cl [A.1.1, saflufenacil]
% damage ([2]; 2 DAT, rate 60 g/ha (A alone)): 55%
% damage ([2]; 8 DAT, rate 60 g/ha (A alone)): 34%
% damage ([1]; 7 DAT, rate 60 g/ha (A alone)): 10%
% damage ([1]; 10 DAT, rate 60 g/ha (A alone)): 56%
% damage ([1]; 11 DAT, rate 60 g/ha (A alone)): 10% and 18% and 19%
% damage ([1]; 42 DAT, rate 60 g/ha (A alone)): 45%
% damage ([5]; walk-in chamber, 1 DAT, rate 0.125 g/ha (A alone)): 38%
% damage ([5]; walk-in chamber, 1 DAT, rate 0.250 g/ha (A alone)): 70%
% damage ([5]; walk-in chamber, 1 DAT, rate 0.350 g/ha (A alone)): 65%
% damage [5, 12]: 38%
% damage ([5]; walk-in chamber, 4 DAT, rate 0.250 g/ha (A alone)): 83%
% damage ([5]; walk-in chamber, 4 DAT, rate 0.350 g/ha (A alone)): 90%
% damage [5, 13]: 18%
% damage ([5]; walk-in chamber, 14 DAT, rate 0.250 g/ha (A alone)): 67%
% damage ([5]; walk-in chamber, 14 DAT, rate 0.350 g/ha (A alone)): 75%
% damage [3, 14]: 95%
% damage [3, 15]: 98%
% damage [3, 16]: 85%
% damage [3, 17]: 93%
% damage ([6]; 4 DAT, rate 60 g/ha (A alone)): 28%
% damage ([6]; 10 DAT, rate 60 g/ha (A alone)): 35%
% damage [4, 14]: 67%
% damage [4, 15]: 96%
% damage [4, 16]: 35%
% damage [4, 17]: 83%

CCCOC(=O)c1cc(O)c(O)c(O)c1 [B.3.29.1, n-propylgallate]
% damage [1, 10]: 0% and 5%
% damage [1, 11]: 0% and 8%

CC(C)(C)CC(C)(C)c1cc(Cc2cc(C(C)(C)CC(C)(C)C)cc(-n3nc4ccccc4n3)c2O)c(O)c(-n2nc3ccccc3n2)c1 [B.1.1.1, 2,2-methylenbis-6-(benzotriazol-2-yl)-4-tert-octylphenol]
% damage ([2]; 2 DAT, rate 500 g/ha (B alone)): 0%
% damage ([2]; 8 DAT, rate 500 g/ha (B alone)): 0%

c1ccc(Nc2ccccc2)cc1 [B.3.19.1, diphenylamine]
% damage [1, 10]: 0%
% damage [1, 11]: 0%

COc1cc(O)c(C(=O)c2ccccc2)cc1S(=O)(=O)O [B.1.7.1, 2-hydroxy-4-methoxy-benzophenone-5-sulfonic acid]
% damage ([2]; 2 DAT, rate 500 g/ha (B alone)): 0%
% damage ([2]; 8 DAT, rate 500 g/ha (B alone)): 0%

C#CCN1C(=O)COc2cc(F)c(N3C(=O)C4=C(CCCC4)C3=O)cc21 [A.5.2, flumioxazin]
% damage ([4]; growth chamber, 4 DAT, rate 2 g/ha (A alone)): 98%
% damage ([4]; growth chamber, 14 DAT, rate 2 g/ha (A alone)): 98%

CNC(=O)c1ccc(Nc2nc(NC)nc(Nc3ccc(/C=C/c4ccc(Nc5nc(NC)nc(Nc6ccc(C(=O)NC)cc6)n5)cc4S(=O)(=O)[O-])c(S(=O)(=O)[O-])c3)n2)cc1.[Na+].[Na+] [B.1.16.1]
% damage ([2]; 2 DAT, rate 500 g/ha (B alone)): 0%
% damage ([2]; 8 DAT, rate 500 g/ha (B alone)): 0%

C#CCN1C(=O)COc2cc(F)c(-n3c(=O)n(C)c(=S)n(C)c3=O)cc21 [A.5.1, 3-[7-fluoro-3-oxo-4-(prop-2-ynyl)-3,4-dihydro-2H-benzo[1,4]oxazin-6-yl]-1,5-dimethyl-6-thioxo-[1,3,5]triazinan-2,4-dione]
% damage [3, 12]: 92%
% damage [3, 13]: 70%
% damage ([4]; walk-in chamber, 4 DAT, rate 1 g/ha (A alone)): 94%
% damage ([4]; walk-in chamber, 14 DAT, rate 1 g/ha (A alone)): 55%

CCOC(=O)C(Cl)Cc1cc(-n2nc(C)n(C(F)F)c2=O)c(F)cc1Cl (centres unmarked) [A.2.1, carfentrazone-ethyl]
% damage ([5]; growth chamber, 4 DAT, rate 10 g/ha (A alone)): 57%
% damage ([5]; growth chamber, 14 DAT, rate 10 g/ha (A alone)): 47%
% damage ([3]; growth chamber, 4 DAT, rate 0.5 g/ha (A alone)): 94%
% damage ([3]; growth chamber, 14 DAT, rate 0.5 g/ha (A alone)): 83%

CCCCC(CC)COC(=O)c1ccc(Nc2nc(Nc3ccc(C(=O)OCC(CC)CCCC)cc3)nc(Nc3ccc(C(=O)OCC(CC)CCCC)cc3)n2)cc1 (centres unmarked) [B.1.11.1, 2,4,6-trinanilino-p-(carbo-2′-ethyl-hexyl-1′-oxy)-1,3,5-triazine]
% damage ([2]; 2 DAT, rate 500 g/ha (B alone)): 0%
% damage ([2]; 8 DAT, rate 500 g/ha (B alone)): 0%

CCN(CC)c1ccc(C(=O)c2ccccc2C(=O)N2CCN(C(=O)c3ccccc3C(=O)c3ccc(N(CC)CC)cc3O)CC2)c(O)c1 [B.1.6.5]
% damage ([2]; 2 DAT, rate 500 g/ha (B alone)): 0%
% damage ([2]; 8 DAT, rate 500 g/ha (B alone)): 0%

COc1ccc(C(=O)c2ccccc2)c(O)c1 [B.1.6.4, 2-hydroxy-4-methoxybenzophenone]
% damage ([2]; 2 DAT, rate 500 g/ha (B alone)): 0%
% damage ([2]; 8 DAT, rate 500 g/ha (B alone)): 0%
% damage ([1]; 5 DAT, rate 500 g/ha (B alone)): 5%
% damage [1, 18]: 0%
% damage [1, 7]: 5%
% damage [1, 19]: 13%
% damage [6, 20]: 15%
% damage [6, 21]: 10%

CC(C)c1cccc(C(C)C)c1N1C(=O)c2cccc3c(Oc4ccc(C(C)(C)CC(C)(C)C)cc4)ccc(c23)C1=O [B.1.18.1, 2-[2,6-bis(1-methylethyl)phenyl]-6-[4-(1,1,3,3-tetramethylbutyl)phenoxy]-1H-benz[de]isoquinoline-1,3(2H)-dione]
% damage ([2]; 2 DAT, rate 500 g/ha (B alone)): 0%
% damage ([2]; 8 DAT, rate 500 g/ha (B alone)): 0%

CCOC(=O)COc1ncccc1Oc1cc(-n2c(=O)cc(C(F)(F)F)n(C)c2=O)c(F)cc1Cl [A.1.2, ethyl[3-[2-chloro-4-fluoro-5-(1-methyl-6-trifluoromethyl-2,4-dioxo-1,2,3,4-tetrahydropyrimidin-3-yl)phenoxy]-2-pyridyloxy]acetate]
% damage ([5]; walk-in chamber, 4 DAT, rate 10 g/ha (A alone)): 95%
% damage ([5]; walk-in chamber, 14 DAT, rate 10 g/ha (A alone)): 80%
% damage ([3]; walk-in chamber, 4 DAT, rate 0.5 g/ha (A alone)): 99%
% damage ([3]; walk-in chamber, 14 DAT, rate 0.5 g/ha (A alone)): 96%

CCCOC(=O)c1cc(O)c(=O)c2c(O)c(O)ccc2c1 [B.1.19.1, 3,4,6-trihydroxy-5-oxo-5H-benzocycloheptene-8-carboxylic acid propyl ester]
% damage ([2]; 2 DAT, rate 250 g/ha (B alone)): 0%
% damage ([2]; 2 DAT, rate 500 g/ha (B alone)): 0%
% damage ([2]; 8 DAT, rate 250 g/ha (B alone)): 0%
% damage ([2]; 8 DAT, rate 500 g/ha (B alone)): 0%

CCCCCCOC(=O)c1ccccc1C(=O)c1ccc(N(CC)CC)cc1O [B.1.6.1, 2-(4-diethylamino-2-hydroxybenzoyl)-benzoic acid hexylester]
% damage ([1]; 7 DAT, rate 500 g/ha (B alone)): 0%
% damage [1, 7]: 0%

O=C(c1ccccc1)c1ccc(O)cc1O [B.1.6.3, 2,4-dihydroxybenzo-phenone]
% damage [1, 18]: 13%
% damage [1, 19]: 0%
% damage [6, 20]: 39%
% damage [6, 21]: 20%

CCCCC(CC)COC(=O)C=Cc1ccc(OC)cc1 (centres unmarked) [B.1.5.1, 2-ethylhexyl 4-methoxycinnamate]
% damage ([2]; 2 DAT, rate 500 g/ha (B alone)): 0%
% damage ([2]; 8 DAT, rate 500 g/ha (B alone)): 0%

CCOC(=O)C(C#N)=C1C=C(NC(C)CC)CC(C)(C)C1 (centres unmarked) [B.1.17.1, 2-cyano-2-[5,5-dimethyl-3-[(1-methylpropyl)amino]-2-cyclohexen-1-ylidene]-acetic acid ethyl ester]
% damage ([2]; 2 DAT, rate 500 g/ha (B alone)): 0%
% damage ([2]; 2 DAT, rate 1000 g/ha (B alone)): 0%
% damage ([2]; 8 DAT, rate 500 g/ha (B alone)): 0%
% damage ([2]; 8 DAT, rate 1000 g/ha (B alone)): 0%
